# US5506268A, “Use of isovaleramide as a mild anxiolytic and sedative agent” (priority 1993, dated 1996)
# Where “and” joins values, the source holds several entries; their conditions need not be identical. Identical values can stand only once. Entries after “also recorded” stand apart in the source; their conditions may differ. Like-named read-outs stand apart in the source and are kept apart here.
# Columns and labels:
# male Sprague-Dawley rats [1] = assay: Vogel Conflict (anxiolytic) Assay, punished licks; type: in vivo, rat; details: for anxiolytic activity in Vogel Conflict Assay: comparable dose levels (500-1000 mg/kg)
# Text: In the Vogel Conflict Paradigm, thirsty rats are given mild electric shocks through a metal water dispenser when they try to drink. The shock is unpleasant, but not severe enough to cause overt pain. When administered anxiolytic drugs, the rats lick the dispenser more often than controls. Assessment of anxiolytic effects is thus measured as an increased number of licks.
# Animals (male Sprague-Dawley rats, 250-300 g) are deprived of water for 24 hr and are then placed into a clear Plexiglass box (45 cm×25 cm×20 cm) which rests on a grid of stainless steel bars. A circuit between the grid bars and the drinking spout is established with a silver electrode in a drinking bottle placed in the chamber. The animals are allowed to lick the water dispenser for 5 min without shock; those animals that fail to lick are excluded from further study.
# The animals are returned to the home colony and are again deprived of water for 24 hr and replaced in the chamber and allowed to lick for 1 min without shock. Then a 1 milliamp current (shock) is maintained for 4 min at the drinking spout. Only the animals showing 50% suppression in licking behavior compared to the first session are included in further testing.
# The test substances are injected intraperitoneally (IP) after this session, and 30 min later the animals are again placed into the chamber. Again the animals are allowed to lick without shock for 1 min and the shock is instituted for the remaining 4 min. The number of punished licks during this time is used to assess anxiolytic activity.
# The "anxiolytic index" is defined as the ratio of the number of punished licks of test animals to that of control animals during a 4-min period. An anxiolytic index greater than one indicates anxiolytic ("calmative") activity. In practice, it is considered that significant "calmative" activity is observed when the anxiolytic index is greater than 1.5.
# Male Sprague-Dawley rats (250-300 g) were deprived of water for 24 hours before testing. The animals were allowed one five-minute period of drinking in the experimental chamber before receiving the test substances at the indicated doses. Thirty minutes later, the animals were returned to the chamber and allowed to drink for one minute without punishment. For the remaining four minutes, a shock was delivered to the drinking spout and the number of punished licks was recorded. Four or five animals were tested in each group.
# KB = assay: In vitro cytotoxicity (cell growth inhibition), KB; type: cell-based, human and murine; details: Homo sapiens, read-out: EC50 (concentration that inhibited cell growth by 50%)
# Protocol: (§1) The valepotriate compounds valtrate, didrovaltrate and acevaltrate were compared with isovaleramide with respect to their effects on various human and murine tumor cell lines. The cells at log-phase growth were treated with various concentrations of test substances for 48 hr. Growth rates were then determined by directly counting cell numbers or by protein determination. EC50 is the effective concentration of test substance that inhibited cell growth by 50%.
# COL-2 = assay: In vitro cytotoxicity (cell growth inhibition), COL-2; type: cell-based, human and murine; details: Homo sapiens, read-out: EC50 (concentration that inhibited cell growth by 50%)
# Protocol: as §1
# KB-V1 = assay: In vitro cytotoxicity (cell growth inhibition), KB-V1; type: cell-based, human and murine; details: Homo sapiens, read-out: EC50 (concentration that inhibited cell growth by 50%)
# Protocol: as §1
# LUC-1 = assay: In vitro cytotoxicity (cell growth inhibition), LUC-1; type: cell-based, human and murine; details: read-out: EC50 (concentration that inhibited cell growth by 50%)
# Protocol: as §1
# HT-1080 = assay: In vitro cytotoxicity (cell growth inhibition), HT-1080; type: cell-based, human and murine; details: Homo sapiens, read-out: EC50 (concentration that inhibited cell growth by 50%)
# Protocol: as §1
# MEL-2 = assay: In vitro cytotoxicity (cell growth inhibition), MEL-2; type: cell-based, human and murine; details: read-out: EC50 (concentration that inhibited cell growth by 50%)
# Protocol: as §1
# BCA-1 = assay: In vitro cytotoxicity (cell growth inhibition), BCA-1; type: cell-based, human and murine; details: read-out: EC50 (concentration that inhibited cell growth by 50%)
# Protocol: as §1
# P388 = assay: In vitro cytotoxicity (cell growth inhibition), P388; type: cell-based, human and murine; details: Mus musculus, read-out: EC50 (concentration that inhibited cell growth by 50%)
# Protocol: as §1
# rats = details: rat, in vivo
# Protocol: (§2) Convulsant activity was tested for N,N-diethylisovaleramide and isovaleramide itself. The potential for CNS-stimulating and convulsant properties was assessed by administering appropriate doses of the test substances IP to rodents (male mice and rats). […] At the highest dose of isovaleramide tested (4000 mg/kg IP), some deaths resulted among the test animals (male mice) after sleeping for several days, apparently from respiratory depression. […] Further testing of isovaleramide at still higher dose levels was precluded by its solubility limits and the consequently overly large injection volumes required.
# male mice [2] = details: mouse, in vivo, ip
# Protocol: as §2
# male rats [3] = assay: Spontaneous locomotor activity measured electronically (sedative effect); type: in vivo, rat; details: for relative potency as strong sedative-hypnotic agent, valnoctamide versus isovaleramide: FIG. 3
# Text: General sedative effects can also be measured electronically by recording drug-induced decreases in spontaneous locomotor activity in treated experimental animals, as shown in FIG. 3.
# [4] = in vivo; cited from earlier work
# male mice [5] = assay: Hypnotic activity (loss of the righting reflex) in mice; type: in vivo; details: Mus musculus, ip
# experimental animals = details: cited from earlier work; for narcotic and hypnotic effects: experimental animals
# [6] = test system: various human and murine tumor cell lines; assay: Cytotoxicity summary over tumor cell lines; type: cell-based; details: summary of Table 1
# Protocol: as §1
# hepatic porphyria = details: literature; cited from earlier work
# male mice [7] = assay: Acute toxicity (LD50) and therapeutic index; type: in vivo; details: male mice, 4000 mg/kg IP
# Protocol: as §2
# [8] = Acute toxicity (LD50) and therapeutic index; type: in vivo; details: mouse, in vivo; mice, IP
# Protocol: as §2
# male mice [9] = assay: Direct observation of sedation / general activity level; type: in vivo, mouse; details: for minimal effective dose: Mus musculus, mice, IP; for observed sedative effects: male mice
# Protocol: Sedative activity elicited by a test substance can be observed directly in experimental animals by a decrease in spontaneous locomotor activity, e.g., in open-field observation experiments. In such experiments, test animals are administered the test substance (usually by IP injection) and, after a suitable waiting period (usually 5-30 min), are placed into an open-field test chamber, which consists of a transparent plastic box with a clearly visible grid painted on the bottom (or floor). The numbers of excursions across the floor grids are then counted over a specified time period (usually 1-3 hours) and are subsequently compared with the numbers obtained from similarly treated saline controls. The number of grid crossings counted gives a direct measurement of the general activity level (measured as spontaneous locomotor activity) of each test animal in question. Sedative activity can be expressed as a percentage of the control level of spontaneous locomotor activity as measured by grid crossings per unit time.
# [10] = cited from earlier work
# [11] = test system: aggressive experimental animals and anxious humans; details: cited from earlier work
# male mice [12] = details: Roszkowski and Govier 1962; cited from earlier work
# male rats [13] = assay: Hypnotic activity (loss of the righting reflex) in rats; details: Rattus norvegicus, ip, read-out: hypnotic dose
# Protocol: Hypnotic activity was assessed by simply determining the doses of the test substances (administered by IP injection) sufficient to cause a loss of the righting reflex (see above) and an apparent loss of consciousness and responsiveness.
# male Sprague-Dawley rats [14] = details: injected at therapeutically effective doses; cited from earlier work
compound,measurement,setting,value
CCCC(N)=O [n-Butyramide],anxiolytic activity in Vogel Conflict Assay,male Sprague-Dawley rats [1]; IP,no significant anxiolytic activity
CC(=O)O[C@H]1C[C@@H]2C(COC(=O)CC(C)C)=CO[C@@H](OC(=O)CC(C)C)[C@@H]2[C@@]12CO2 [Didrovaltrate],EC50,KB; 48 hr,2.03 mg/L
same,EC50,"COL-2; Col2, COL-2, 48 hr",1.49 mg/L
same,EC50,"KB-V1; KB-V1, 48 hr",1.29 mg/L
same,EC50,"LUC-1; LUC1, LUC-1, 48 hr",2.91 mg/L
same,EC50,"HT-1080; HT-1080, 48 hr",0.7 mg/L
same,EC50,"MEL-2; MEL2, MEL-2, 48 hr",0.42 mg/L
same,EC50,"BCA-1; BCA1, BCA-1, 48 hr",0.7 mg/L
same,EC50,"P388; P388, 48 hr",0.19 mg/L
"CCN(CC)C(=O)CC(C)C [N,N-Diethylisovaleramide, N,N-diethylisovaleramide]","CNS-stimulating, anxiogenic and convulsant properties",rats,"CNS-stimulating, anxiogenic, and convulsant properties"
same,dose at which potent convulsant,rats; ip,250 mg/kg
same,dose causing death following convulsive seizures,male mice [2],500 mg/kg
same,dose with potent CNS-stimulating and convulsant properties,male mice [2],250 mg/kg
same,dose with CNS-stimulating (excitant) activity,male Sprague-Dawley rats [1]; Vogel assay (FIG. 2),50 mg/kg
CC(=O)OCC1=CO[C@@H](OC(=O)CC(C)C)[C@H]2C1=C[C@H](OC(=O)CC(C)C)[C@]21CO1 [Valtrate],EC50,KB; 48 h,0.51 mg/L
same,EC50,"COL-2; Col2, 48 h",0.59 mg/L
same,EC50,"KB-V1; KB-V1, 48 h",0.72 mg/L
same,EC50,"LUC-1; LUC1, 48 h",2 mg/L
same,EC50,"HT-1080; HT-1080, 48 h",0.41 mg/L
same,EC50,"MEL-2; MEL2, 48 h",0.39 mg/L
same,EC50,"BCA-1; BCA1, 48 h",0.41 mg/L
same,EC50,"P388; P388, 48 h",0.06 mg/L
"CC(C)CC(N)=O [Isovaleramide, isovaleramide]",EC50,KB; 48 h,> 20 mg/L
same,EC50,"COL-2; Col2, 48 h",> 20 mg/L
same,decrease in spontaneous locomotor activity,male rats [3]; 250 mg/kg IP,decreased locomotor activity to a level comparable to that induced by valnoctamide at 25 mg/kg
same,decrease in spontaneous locomotor activity,male rats [3]; 500 mg/kg IP,comparable to that induced by valnoctamide at 50 mg/kg IP
same,"relative potency as strong sedative-hypnotic agent, valnoctamide versus isovaleramide",male rats [3],only about one-tenth of the potent sedative-hypnotic properties exhibited by valnoctamide
same,EC50,"KB-V1; KB-V1, 48 h",> 20 mg/L
same,EC50,"LUC-1; LUC1, 48 h",> 20 mg/L
same,anticonvulsant properties,[4],no anticonvulsant properties
same,minimal effective dose,"male mice [5]; mice, IP, not hypnotic even at 1000 mg/kg, hypnotic at 2000 mg/kg, read-out: hypnotic dose",> 1000 mg/kg
same,minimal effective dose,"male mice [5]; mice, IP, not hypnotic even at this dose, read-out: hypnotic dose",> 9900 µmol/kg
same,minimal effective dose,"male mice [5]; very large doses approaching toxic dose levels, read-out: dose producing hypnosis",> 1000 mg/kg
same,clinical usefulness as a hypnotic,"experimental animals; Impens 1912, Junkmann 1937",clinically useless as a hypnotic
same,narcotic and hypnotic effects,experimental animals,narcotic and hypnotic effects in experimental animals when administered in very high doses; also recorded: hypnotic activity only when administered to experimental animals in very high doses
same,cytotoxicity,[6],no cytotoxicity
same,EC50,"HT-1080; HT-1080, 48 h",> 20 mg/L
same,hepatic porphyria-inducing properties,hepatic porphyria,no hepatic porphyria-inducing properties
same,EC50,"MEL-2; MEL2, 48 h",> 20 mg/L
same,EC50,"BCA-1; BCA1, 48 h",> 20 mg/L
same,survival,male mice [7],more than half of the experimental animals survived
same,mortality,male mice [7]; after sleeping for several days,some deaths
same,LD50,[8],> 4000 mg/kg
same,selectivity ratio,[8],~40
same,increase in the number of punished licks over controls,"male Sprague-Dawley rats [1]; IP, 500-1000 mg/kg",approximate three-fold increase
same,minimal effective dose,"male mice [9]; naive observers, read-out: dose at which naive observers distinguish treated mice from saline controls",250 mg/kg
same,minimal effective dose,"male mice [9]; very astute observers, read-out: dose at which very astute observers distinguish treated mice from controls",100 mg/kg
same,observed sedative effects,male mice [9]; 1000 mg/kg IP,clearly sedentary
same,observed sedative effects,male mice [9]; 500 and 1000 mg/kg IP,much more pronounced
same,EC50,"P388; P388, 48 h",> 20 mg/L
same,water solubility,[10],essentially water soluble
CC(=O)OCC1=CO[C@@H](OC(=O)CC(C)C)[C@H]2C1=C[C@H](OC(=O)CC(C)(C)OC(C)=O)[C@]21CO1 [Acevaltrate],EC50,KB; 48 hr,2.7 mg/L
same,EC50,"COL-2; Col2, COL-2, 48 hr",2.89 mg/L
same,EC50,"KB-V1; KB-V1, 48 hr",2.26 mg/L
same,EC50,"LUC-1; LUC1, LUC-1, 48 hr",4.3 mg/L
same,EC50,"HT-1080; HT-1080, 48 hr",2.05 mg/L
same,EC50,"MEL-2; MEL2, MEL-2, 48 hr",0.75 mg/L
same,EC50,"BCA-1; BCA1, BCA-1, 48 hr",1.94 mg/L
same,EC50,"P388; P388, 48 hr",0.88 mg/L
CC(C)CC(=O)O [Isovaleric acid],narcotic and hypnotic effects,experimental animals,narcotic and hypnotic effects in experimental animals when administered in very high doses
OC[C@H]1O[C@@](CO)(O[C@H]2O[C@H](CO)[C@@H](O)[C@H](O)[C@H]2O)[C@@H](O)[C@@H]1O [sucrose],anxiolytic activity in Vogel Conflict Assay,male Sprague-Dawley rats [1]; IP,no significant anxiolytic activity
CCC(C)C(CC)C(N)=O (racemic) [valnoctamide],"relative potency as strong sedative-hypnotic agent, valnoctamide versus isovaleramide",male rats [3],about ten times more potent than isovaleramide
same,tranquilizing and anxiety-reducing properties,[11],purported to exhibit tranquilizing and anxiety-reducing properties
same,therapeutic index,male mice [12],~11.4
same,minimal effective dose,male rats [13],250 mg/kg and 1750 µmol/kg
same,water solubility,[10],very water insoluble
CN1C(=O)CN=C(c2ccccc2)c2cc(Cl)ccc21 [diazepam],increase in the number of licks,male Sprague-Dawley rats [14],ten-fold increase
